{
  "source": "paper PMC13288762",
  "about": "(Frontiers in Medicine, 2026)",
  "key": {"[1]": {"tested_on": "Mdr2−/− mice (model of PSC)", "assay": "MC infiltration and activation in liver of Mdr2−/− mice (IHC, qPCR)", "type": "in vivo, mouse", "settings": "20 mg/kg IP daily, 2 weeks", "procedure": "(§1) Animal procedures were performed according to protocols approved by Indiana University School of Medicine Institutional Animal Care and Use Committee. […] Male Mdr2^−/− mice (n = 8) were collected at twelve-weeks for PSC model. Twelve-week-old male Friend Virus B NIH Jackson (FVB/NJ [FVB/wild type (WT) control], n = 8) mice were used as control WT for Mdr2^−/−.\n(§2) In all groups, serum, liver, cholangiocytes, and cholangiocyte supernatants were collected as described ([18], [19]). The collected liver was divided into three portions: (i) snap-frozen tissue; (ii) OCT-embedded blocks (5 μm cryosections) for immunofluorescence (IF); and (iii) formalin-fixed, paraffin-embedded (FFPE) blocks (4 μm sections) for immunohistochemistry (IHC).\n(§3) Liver inflammation was evaluated by IHC for F4/80 in FFPE mouse liver sections, and positive cells were quantified by Image-Pro Premier software (Rockville, MD). Liver MC infiltration was detected with IHC for tryptase β-2 (Tpsb2) and mucosal MC chymase-1 (mMCP1) in liver sections. MCs were semi-quantified as Tpsb2 or mMCP1 positivite cell number/total area with Image-Pro Premier software (Rockville, MD). MC activation was determined by qPCR for Fc fragment of IgE, high affinity I, receptor for alpha polypeptide (Fcer1a), Mcpt1 and Tpsb2 in total liver samples.\n(§4) Since we found increased chymase levels in human PSC livers, we evaluated the pharmacological inhibition of chymase in modulating PSC in Mdr2^−/− mice. […] All treatment groups were compared to Mdr2^−/− mice."}, "[2]": {"tested_on": "Mdr2−/− mice (model of PSC)", "assay": "Liver damage, bile acids and inflammation in Mdr2−/− mice (H&E, TBA kit, F4/80 IHC)", "type": "in vivo, mouse", "settings": "20 mg/kg IP daily, 2 weeks", "procedure": "as §1, §2\nLiver damage was assessed by hematoxylin and eosin (H&E) staining in FFPE mouse liver sections and scored in a coded fashion to determine portal inflammation. Serum and liver total bile acids (TBAs) were determined using a TBA Assay Kit (Colorimetric, Sigma-Aldrich).\nas §3, §4"}, "[3]": {"tested_on": "Mdr2−/− mice (model of PSC)", "assay": "Liver fibrosis in Mdr2−/− mice (FG/SR, hydroxyproline, desmin IF, qPCR)", "type": "in vivo, mouse", "procedure": "as §1, §2\nCollagen deposition was determined by Fast Green/Sirius Red staining in FFPE mouse liver sections and quantified by the Image-Pro Premier software (Rockville, MD). Liver fibrosis was also determined by measuring hydroxyproline levels in total liver samples using the hydroxyproline assay kit (MAK008-1KT; Millipore Sigma, Billerica, MA). To detect activated HSCs, IF for desmin (co-stained with CK-19) was performed in frozen liver sections with semi-quantification ([20], [21]). The mRNA expression of the fibrosis markers, collagen type I alpha 1 (Col1a1) and tissue inhibitor of metalloproteinases 2 (Timp2) and transforming growth factor beta 1 (Tgfb1) was measured in total mouse livers by qPCR.\nas §4"}, "[4]": {"tested_on": "Mdr2−/− mice (model of PSC)", "assay": "Ductular reaction and biliary senescence in Mdr2−/− mice (CK-19 IHC, p16 IF, qPCR)", "type": "in vivo, mouse", "settings": "20 mg/kg IP", "procedure": "as §1, §2\nDuctular reaction was evaluated in FFPE mouse liver sections by IHC for CK-19 to specifically mark bile ducts. Stained slides were scanned by a digital scanner (Aperio AT2 scanner; Leica Biosystems). CK-19-positive area was quantified using the Image-Pro Premier software (Rockville, MD). Biliary senescence was evaluated by: (i) IF for p16 expression in frozen liver sections co-stained with CK-19 (to mark bile ducts) and (ii) mRNA expression of cellular senescence markers, cyclin dependent kinase inhibitor 2a (Cdkn2a; gene for p16), cyclin dependent kinase inhibitor 2c (Cdkn2c, gene for p18) and galactosidase, beta 1-like (Glb1l) in isolated mouse cholangiocytes ([3], [19]).\nas §4"}, "aortic aneurysm model": {"tested_on": "aortic aneurysm model", "set-up": "method as in PMID 31128093", "settings": "10 mg/kg for 4 weeks; cited from earlier work"}, "[5]": {"set-up": "method as in earlier work", "settings": "Phase 2 clinical trial, atopic dermatitis; cited from earlier work"}, "[6]": {"tested_on": "Mdr2−/− mice (model of PSC)", "set-up": "method as in PMID 10711453", "settings": "cited from earlier work"}, "[7]": {"settings": "male Mdr2−/− mice, vs untreated Mdr2−/−, qPCR total liver"}, "[8]": {"settings": "20 mg/kg IP daily, 2 weeks, qPCR total liver"}, "[9]": {"settings": "20 mg/kg IP daily, 2 weeks, vs untreated mice"}},
  "data": [
    {"smiles": "CCC[C@@H](NC(=O)N1CC(=NOCC)NC[C@H](Cc2cc(Cl)ccc2OC)C1=O)c1ccc(C(=O)O)c(N)c1", "note": "[INVA8001]", "values": [
      {"measurement": "number of chymase (mMCP1)-positive cells in liver", "setting": "[1]; Mdr2−/− mice, IHC", "value": "significant reduction"},
      {"measurement": "number of tryptase (Tpsb2)-positive cells in liver", "setting": "[1]; Mdr2−/− mice, IHC", "value": "significant reduction"},
      {"measurement": "Fcer1a mRNA expression in liver", "setting": "[1]; [7]", "value": "attenuated"},
      {"measurement": "Mcpt1 mRNA expression in liver", "setting": "[1]; [7]", "value": "attenuated"},
      {"measurement": "Tpsb2 mRNA expression in liver", "setting": "[1]; [7]", "value": "decreasing trend (not statistically significant)"},
      {"measurement": "histological damage (H&E)", "setting": "[2]", "value": "amelioration"},
      {"measurement": "portal inflammation (H&E)", "setting": "[2]", "value": "amelioration"},
      {"measurement": "liver enzymes", "setting": "[2]; data not shown", "value": "no significant changes"},
      {"measurement": "hepatic total bile acid (TBA) accumulation", "setting": "[2]; liver tissue", "value": "significant reduction"},
      {"measurement": "number of infiltrating macrophages (F4/80 staining)", "setting": "[2]; portal tracts, IHC", "value": "significantly reduced"},
      {"measurement": "serum total bile acid (TBA) accumulation", "setting": "[2]; serum", "value": "significant reduction"},
      {"measurement": "Col1a1 gene expression in liver", "setting": "[3]; [8]", "value": "significantly reduced"},
      {"measurement": "Tgfb1 gene expression in liver", "setting": "[3]; [8]", "value": "significantly reduced"},
      {"measurement": "Timp2 gene expression in liver", "setting": "[3]; [8]", "value": "significantly reduced"},
      {"measurement": "hepatic fibrosis, FG/SR staining", "setting": "[3]; [9]", "value": "decreased"},
      {"measurement": "liver hydroxyproline content", "setting": "[3]; [9]", "value": "lowered"},
      {"measurement": "desmin immunoreactivity (HSC activation)", "setting": "[3]; 20 mg/kg IP, IF liver sections", "value": "significantly reduced"},
      {"measurement": "p16 immunoreactivity in liver", "setting": "[4]; IF co-stained with CK-19", "value": "reduced"},
      {"measurement": "bile duct mass (CK-19-positive bile ducts)", "setting": "[4]; IHC", "value": "significant reduction"},
      {"measurement": "Cdkn2a expression in isolated cholangiocytes", "setting": "[4]; qPCR isolated cholangiocytes", "value": "reduced"},
      {"measurement": "Cdkn2c expression in isolated cholangiocytes", "setting": "[4]; qPCR isolated cholangiocytes", "value": "reduced"},
      {"measurement": "Glb1l expression in isolated cholangiocytes", "setting": "[4]; qPCR isolated cholangiocytes", "value": "reduced"},
      {"measurement": "Tgfb1 expression in isolated cholangiocytes", "setting": "[4]; qPCR isolated cholangiocytes", "value": "reduced"},
      {"measurement": "Cdkn2a mRNA expression in total liver", "setting": "[4]; qPCR total liver", "value": "reduced"},
      {"measurement": "efficacy in a model of aortic aneurysm", "setting": "aortic aneurysm model", "value": "effective"},
      {"measurement": "safety and tolerability, adverse effects", "setting": "[5]", "value": "no significant adverse effects reported"}
    ]},
    {"smiles": "O=C(O)c1cc(=O)c2c(OCC(O)COc3cccc4oc(C(=O)O)cc(=O)c34)cccc2o1", "note": "[cromolyn sodium]", "values": [
      {"measurement": "levels of MC mediators, inflammation, tissue damage, and fibrosis", "setting": "[6]", "value": "attenuates"}
    ]}
  ]
}
